Test results: patent publication US7713994B2 (Wyeth LLC, priority 2005, dated 2010)
pIC50: −log10 of the molar value. Like-named read-outs stand apart in the source and are kept apart here.

Assays:
cyclin D1/cdk 4 enzyme = target: T1, cyclin D1/cdk 4 enzyme (Homo sapiens, UniProt P11802); assay: CDK4 ELISA kinase assay (phospho-Rb ser 795 detection); assay type: biochemical
T1 construct: made in house; host or cells: Sf9 insect cells, recombinant baculovirus
Procedure, shortened: (§1)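 Wells were coated overnight with GST-Rb C-terminal fragment, then blocked. Compound (10 ug/ml final) and cyclin/CDK enzyme from baculovirus-infected Sf9 cells with 200 μM ATP reacted 1 h at 30° C. Ser795 phosphorylation was detected by ELISA at 450 nm.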

cyclin E/CDK2 enzyme = target: T2, cyclin E/CDK2 enzyme (Homo sapiens, UniProt P24941); assay: CDK2 ELISA kinase assay (phospho-Rb ser 795 detection); assay type: biochemical
T2 construct: made in house; host or cells: Sf9 insect cells, recombinant baculovirus
Procedure, shortened: as §1

cyclin B/CDK1 enzyme = target: T3, cyclin B/CDK1 enzyme (Homo sapiens, UniProt P06493); assay: CDK1 ELISA kinase assay (phospho-Rb ser 795 detection); assay type: biochemical
T3 construct: purchased New England BioLabs; host or cells: Sf9 insect cells, recombinant baculovirus
Procedure, shortened: as §1

BT474 = assay: Cytotoxicity assay (SRB), BT474; assay type: cell-based
Procedure, shortened: (§2)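 Percentage survival is derived from SRB absorbance (540 nm) versus untreated cells. Exposures were 3 days, except 6 days for BT474, at 37 °C and 7% CO2.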

HCT-116 = assay: Cytotoxicity assay (SRB), HCT-116; assay type: cell-based; details: HCT116 cells, SRB, read-out: In Vitro Cellular Activity IC50 HCT116
Procedure, shortened: as §2

LoVo = assay: Cytotoxicity assay (SRB), LoVo; assay type: cell-based; details: LoVo cells, SRB, read-out: In Vitro Cellular Activity IC50 LOVO
Procedure, shortened: as §2

MCF-7 = assay: Cytotoxicity assay (SRB), MCF-7; assay type: cell-based; details: MCF-7 cells, SRB, read-out: In Vitro Cellular Activity IC50 MCF-7
Procedure, shortened: as §2

SK-UT-1B = assay: In Vitro Cellular Activity (Table III), SK-UT-1B; assay type: cell-based; details: SK-UT-1B cells
[1] = I.V. and P.O. Dosing in Mice; assay type: in vivo; details: for AUC(0-inf) / bioavailability: mouse, in vivo; for bioavailability: po 50 mg/kg vs i.v. 2 mg/kg
[2] = In Vitro Enzyme Assays, 200 μM ATP, read-out: CDK4 IC50
[3] = In Vitro Enzyme Assays, read-out: CDK2 IC50
[4] = In Vitro Enzyme Assays, read-out: CDK1 IC50
[5] = Homo sapiens, BT-474, 144 h, BT474 cells, SRB, 6 days; read-out: In Vitro Cellular Activity IC50 BT474
[6] = Homo sapiens, HCT-116, 72 h, three days
[7] = Homo sapiens, LoVo, 72 h, three days
[8] = Homo sapiens, MCF7, 72 h, three days
[9] = iv, 2 mg/kg, dose i.v. 2 mg/kg, read-out: aucinf obs (i.v.)
[10] = po, 50 mg/kg, dose po 50 mg/kg, read-out: aucinf obs (po)
[11] = In Vitro Enzyme Assay, cyclin D1/cdk 4, read-out: CDK4 IC50
[12] = In Vitro Enzyme Assay, cyclin E/CDK2, read-out: CDK2 IC50
[13] = In Vitro Enzyme Assay, cyclin B/CDK1, read-out: CDK1 IC50
[14] = Homo sapiens, BT-474, 144 h, BT474 cells, 6 days, SRB; read-out: In Vitro Cellular Activity IC50 BT474
[15] = Homo sapiens, HCT-116, 72 h, 3 days
[16] = Homo sapiens, LoVo, 72 h, 3 days
[17] = Homo sapiens, MCF7, 72 h, 3 days

T1 sequence (P11802 whole entry, species assumed): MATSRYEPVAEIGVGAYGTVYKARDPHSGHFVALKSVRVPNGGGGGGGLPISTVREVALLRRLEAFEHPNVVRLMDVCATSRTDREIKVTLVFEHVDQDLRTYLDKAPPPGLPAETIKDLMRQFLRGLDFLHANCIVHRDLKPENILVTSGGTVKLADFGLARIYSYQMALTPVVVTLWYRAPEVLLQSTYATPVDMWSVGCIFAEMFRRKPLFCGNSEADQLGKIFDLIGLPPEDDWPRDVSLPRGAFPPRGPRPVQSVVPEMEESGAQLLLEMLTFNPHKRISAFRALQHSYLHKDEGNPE
T1 sequence (P24385 whole entry partner, species assumed): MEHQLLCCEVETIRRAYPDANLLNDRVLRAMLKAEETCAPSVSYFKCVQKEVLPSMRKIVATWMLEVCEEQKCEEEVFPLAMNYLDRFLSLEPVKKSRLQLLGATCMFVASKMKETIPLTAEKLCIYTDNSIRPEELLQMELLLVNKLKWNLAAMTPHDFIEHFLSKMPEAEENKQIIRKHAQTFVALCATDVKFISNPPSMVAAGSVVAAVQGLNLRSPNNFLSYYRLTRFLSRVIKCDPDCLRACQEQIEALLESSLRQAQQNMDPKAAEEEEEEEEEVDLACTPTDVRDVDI
T3 sequence (P06493 whole entry): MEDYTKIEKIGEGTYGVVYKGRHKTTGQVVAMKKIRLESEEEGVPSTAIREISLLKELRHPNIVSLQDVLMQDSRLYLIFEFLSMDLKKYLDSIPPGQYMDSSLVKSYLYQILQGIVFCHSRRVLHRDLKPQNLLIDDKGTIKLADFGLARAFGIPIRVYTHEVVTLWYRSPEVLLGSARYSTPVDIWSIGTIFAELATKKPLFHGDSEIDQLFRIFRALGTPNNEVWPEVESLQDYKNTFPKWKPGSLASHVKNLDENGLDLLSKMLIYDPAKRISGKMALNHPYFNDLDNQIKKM
T3 sequence (P14635 whole entry partner): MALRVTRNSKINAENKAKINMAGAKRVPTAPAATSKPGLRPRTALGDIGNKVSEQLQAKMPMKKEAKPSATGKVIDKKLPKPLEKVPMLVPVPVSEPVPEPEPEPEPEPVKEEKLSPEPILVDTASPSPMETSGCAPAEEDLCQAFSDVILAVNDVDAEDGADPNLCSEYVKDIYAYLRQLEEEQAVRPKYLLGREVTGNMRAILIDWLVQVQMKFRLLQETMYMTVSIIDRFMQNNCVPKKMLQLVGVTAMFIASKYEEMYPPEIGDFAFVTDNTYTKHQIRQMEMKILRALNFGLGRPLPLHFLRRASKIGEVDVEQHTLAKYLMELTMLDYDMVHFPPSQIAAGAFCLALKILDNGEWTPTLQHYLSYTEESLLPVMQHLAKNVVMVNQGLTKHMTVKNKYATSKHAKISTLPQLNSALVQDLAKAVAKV

Compound	pIC50 (cyclin D1/cdk 4 enzyme; [2])	pIC50 (cyclin E/CDK2 enzyme; [3])	pIC50 (cyclin B/CDK1 enzyme; [4])	pIC50 (BT474; [5])	pIC50 (HCT-116; [6])	pIC50 (LoVo; [7])	pIC50 (MCF-7; [8])	pIC50 (SK-UT-1B; Homo sapiens, Skut1B)	melting point	Cl_obs ([1]; dose i.v. 2 mg/kg) [mL/min/kg]	Vss_obs ([1]; dose i.v. 2 mg/kg) [L/kg]	AUC(0-inf) [1, 9] [ng·h/mL]	bioavailability ([1]; po, 50 mg/kg) [%]	other results
O=C1NC(=O)c2ccccc2/C1=C/Nc1ccc(N2CCOCC2)cc1 [Example 6, (4Z)-4-{[(4-Morpholin-4-ylphenyl)amino]methylene}isoquinoline-1,3(2H,4H)-dione]	< 4.30	< 4.54	< 4.54	< 4.30	< 4.30	< 4.30	< 4.30	4.74						
COc1ccc(/C=C2/C(=O)NC(=O)c3ccccc32)cc1OC [Example 12, (4E)-4-(3,4-dimethoxybenzylidene)isoquinoline-1,3(2H,4H)-dione]	< 4.30	< 4.49	< 4.49	< 4.30	5.68	5.27	4.84	< 4.49						
O=C1NC(=O)c2ccccc2/C1=C/Nc1ccc(CN2CCOCC2)cc1 [Example 19, (4Z)-4-({[4-(Morpholin-4-ylmethyl)phenyl]amino}methylene)isoquinoline-1,3(2H,4H)-dione]	4.97	4.67	< 4.57		4.70		4.80	4.67						
O=C1NC(=O)c2ccccc2/C1=C/Nc1cccc(CCN2CCCC2)c1 [Example 22, (4Z)-4-({[3-(2-Pyrrolidin-1-ylethyl)phenyl]amino}methylene)isoquinoline-1,3(2H,4H)-dione]				4.68	4.96	4.72	5.00	5.27						
CN(C)Cc1ccc(N/C=C2\C(=O)NC(=O)c3ccccc32)cc1 [Example 25, (4Z)-4-[({4[(Dimethylamino)methyl]phenyl}amino)methylene]isoquinolin-1,3(2H,4H)-dione]	5.18	4.64	< 4.54		4.94		5.25	4.79						
CN1CCN(c2ccc(N/C=C3\C(=O)NC(=O)c4cc(Br)ccc43)cc2)CC1 [Example 45, (4Z)-7-Bromo-4-({[4-(4-methylPiperzin-1-yl)phenyl]amino}methylene)isoquinoline-1,3(2H,4H)-dione]		4.33	< 4.30	4.72	5.30	4.48	4.73	4.51						
CN1CCN(c2ccc(N/C=C3\C(=O)NC(=O)c4ccc(-c5ccsc5)cc43)cc2)CC1 [Example 107, (4Z)-4-({[4-(4-Methylpiperazin-1-yl)phenyl]amino}methylene)-6-thien-3-ylisoquinoline-1,3(2H,4H)-dione]	7.10	< 4.30	< 4.30	5.60	5.85	5.64	5.64		224 to 226 °C	37	11	901	18.2	HL_Lambda_z ([1]; dose po 50 mg/kg): 7.4 h; AUC(0-inf) [1, 10]: 4100 ng·h/mL
O=C1NC(=O)c2ccc(I)cc2/C1=C/NCc1cc(O)c(-c2ccccc2)cn1 [Example 524, (4Z)-{[(4-Hydroxy-5-phenyl-pyridin-2-ylmethyl)-amino]-methylene}-6-iodo-4H-isoquinoline-1,3-dione]									292 to 293 °C (dec.)	35	2.4	952	0	pIC50 (cyclin D1/cdk 4 enzyme; [11]): 7.40; pIC50 (cyclin E/CDK2 enzyme; [12]): 5.66; pIC50 (cyclin B/CDK1 enzyme; [13]): 4.55; pIC50 (BT474; [14]): 7.52; pIC50 (HCT-116; [15]): 6.96; pIC50 (LoVo; [16]): 6.92; pIC50 (MCF-7; [17]): 6.05
O=C1NC(=O)c2ccc(I)cc2/C1=C/NCc1cc(O)c(-c2ccoc2)cn1 [Example 527, (4Z)-{[(5-Furan-3-yl-4-hydroxy-pyridin-2-ylmethyl)-amino]-methylene}-6-iodo-4H-isoquinoline-1,3-dione]									213 to 228 °C (dec.)	5	0.5	6060	0.9	pIC50 (cyclin D1/cdk 4 enzyme; [11]): 7.52; pIC50 (cyclin E/CDK2 enzyme; [12]): 5.64; pIC50 (cyclin B/CDK1 enzyme; [13]): 4.87; pIC50 (BT474; [14]): 7.05; pIC50 (HCT-116; [15]): 6.26; pIC50 (LoVo; [16]): 6.31; pIC50 (MCF-7; [17]): 5.57; HL_Lambda_z ([1]; dose po 50 mg/kg): 3.4 h; AUC(0-inf) [1, 10]: 1400 ng·h/mL
CC(C)(C)c1ccc2c(c1)/C(=C/NCc1cc(O)c(-c3ccccc3)cn1)C(=O)NC2=O [Example 531, 6-tert-Butyl-4-{[(4-hydroxy-5-phenyl-pyridin-2-ylmethyl)-amino]-methylene}-4H-isoquinoline-1,3-dione]									195 to 218 °C (dec.)	23	0.9	1450	2.5	pIC50 (cyclin E/CDK2 enzyme; [12]): 5.59; pIC50 (cyclin B/CDK1 enzyme; [13]): 4.79; pIC50 (BT474; [14]): 7.40; pIC50 (HCT-116; [15]): 6.82; pIC50 (LoVo; [16]): 7.00; pIC50 (MCF-7; [17]): 6.15; HL_Lambda_z ([1]; dose po 50 mg/kg): 5.2 h; AUC(0-inf) [1, 10]: 879 ng·h/mL
CN1CCN(c2ccc(N/C=C3\C(=O)NC(=O)c4ccccc43)cc2)CC1 [compound 4]			< 4.55	4.74	5.04	4.89	5.26	4.90						
O=C1NC(=O)c2ccccc2/C1=C/Nc1ccc2cn[nH]c2c1 [compound 7]	5.02	5.25	< 4.48		5.18		4.95	5.37						
(4Z)-4-[({3-Chloro-4-{(4chlorobenzyl)oxy]phenyl}amino)methylene]isoquinoline-1,3(2H,4H-dione [Example 15]														pIC50 (BT474; BT474 cells, SRB, 6 days; read-out: In Vitro Cellular Activity IC50 BT474): < 4.30; pIC50 (HCT-116; three days): 4.99; pIC50 (LoVo; three days): 4.30; pIC50 (MCF-7; three days): 4.55; pIC50 (SK-UT-1B): 4.94
